Test results reported in patent EP0808325B1, “[…] […] SERIES FOR […] GABA RECEPTOR” (priority 1994, dated 1996).

Tests used:
[1] = test system: metrazol induced convulsions; test: animal or person; assay type: in vivo, mice; settings: IP, 10 mg/kg
Description: Experiments were also performed to determine the physiological relevance of neuroactive steroid and GABA receptor interactions by assessing the ability of the compounds of and used in the invention to prevent metrazol induced convulsions in mice. […] The time to onset of myoclonus (presence of forelimb clonic activity) induced by metrazol was determined by observing each mouse for a period of 30 minutes. […]
The anticonvulsant tests are similar to that described above. […] The number of animals with tonic and/or clonic convulsions was recorded. In the maximal electroshock test, 50 mA of current at 60 Hz was delivered through corneal electrodes for 200 msec to induce tonic seizure. The ability of compounds to abolish the tonic component was defined as the endpoint. General CNS depression potential was determined by a rotorod test 10 minutes after the injection of compounds where the number of mice staying on a rotating (6 rpm) rod for 1 minute in one of the three trials was determined. […]

rats = test: Geller-Seifter conflict test; assay type: in vivo, Sprague-Dawley rats
Source text: This animal model of human anxiety utilizes a conditioned state of conflict in rats to ascertain the anxiolytic properties of drugs. Rats are conditioned to bar press for positive reinforcement under two schedules of behavior (Geller and Seifter, Psychopharmacologia 1:482-492 (1960)). The first includes bar pressing under a […] schedule without punishment. The second component is a fixed ratio schedule with each bar press resulting in a positive reinforcement and a punishment. The punished component produces a state of conflict within the animal. […] An anxiolytic response would increase the punished responding without affecting the unpunished responding.
Male albino Sprague-Dawley rats (Charles River Labs, Wilmington, MA) weighing 250-300 g were used for conflict experiments and were kept on a restricted diet of Purina Lab Chow food pellets with water available at all times to maintain body weight at 85% of their free-feeding young adult levels. Rats were housed individually under a 12-hour light-dark cycle with lights on from 0700-1900.
The anti-anxiety (punishment-lessening) and response depressant effects of […] and […] were measured in rats by the conflict test of Geller and Seifter (1960). In this 63-min test, hungry rats perform a lever-press response to obtain a sweetened milk reward. The reinforcement schedule consists of punishment and nonpunishment components, alternating approximately every 15 min. Rats were trained in test chambers (Coulbourn instruments) with a lever mounted in one wall, a small dipper that delivered the 0.1-mL milk reward (1 part Eagle condensed : milk 2 parts water), and a metal grid floor through which the foot-shock punishment was administered. A DEC PDP 11/73 minicomputer running SKED (State Systems) was used for programming and recording.
Rates initially learned to respond on a continuous reinforcement schedule and progressed rapidly to 30-sec, 1-min, and 2-min variable interval (VI) schedules. On the continuous reinforcement schedule, rats received milk reward following every lever press; on the VI schedules, milk rewards were available at infrequent and variable intervals, eventually at an average of once every 2 min. Four 3-min "conflict" periods were then introduced on the unpunished VI baseline; the first started after 3 min of VI performance and the others were alternated between 12-min periods of VI responding. During conflict periods, which were signalled by the presentation of a light and a tone, the continuous reinforcement schedule was again in force and each lever press delivered both a milk reward and a brief ([…]) foot-shock punishment. Shock intensity was 0.2 mA initially, and.was increased daily in increments of 0.02 mA in order to gradually suppress lever pressing to 5 responses or less per conflict period. This training took 4-6 weeks, after which stable low rates of response were observed during conflict periods and stable high rates in the nonpunishment periods. Drug-induced increases in the rate of punished responses were taken as an index of antianxiety activity, while decreases in the rate of unpunished responses were taken as an index of response depression or sedation.

mice = test: elevated plus-maze; assay type: in vivo, N.I.H. Swiss-Webster mice; settings: IP
Source text: The theoretical basis for the elevated plus-maze test is similar to that of the light/dark transition test. As described by Pellow et al., J. Neurosci. Meth 14:149-167 (1985), the elevated plus-maze apparatus is designed to utilize the mice's natural aversion to open spaces. The apparatus consists of two open-arms and two enclosed-arms. The elevated plus-maze test allows for two measures of anxiety, the number of entries into the open-arms and the time spent on the open-arms, both expressed as a percentage of the total number of entries and time spent in/on both the open-arms and enclosed-arms.
Male N.I.H. Swiss-Webster mice (Harlan, Indianapolis, IN) weighing 15-20 g were housed four per cage in polyethylene cages with sawdust bedding. The colony room was environmentally controlled (22°C) with a 12 hr light/dark cycle (0600-1800 hr). Food and water were available ad libitum, except during testing. The experiments were run from 0700-1500 hr and groups were counterbalanced for time of day effects. Mice were only administered drug or vehicle once.
The method used was previously described (Lister, Psychopharmacol. 92:180-185 (1987)). The apparatus included two open arms perpendicular to two enclosed arms elevated 50 cm from the floor. Each arm was 50 cm long and the walls of the enclosed arms were 40 cm tall. The maze was made completely of black plexiglass. Incandescent 200 W light bulbs were above each of the open arms to produce a strong contrast between the open arms and the enclosed arms.
Ten minutes after an injection, the N.I.H. Swiss-Webster mice were placed in the center of the plus-maze facing an open arm. During the 5 min test period, the number of entries onto the open arms and the enclosed arms, and the time spent in the open arms and enclosed arms were measured. All four paws had to be within an arm for the dependent variable to be measured. Therefore, the time spent in the center of the maze is not counted, so the total time spent in the open arms and the enclosed arms may not equal 5 min. […]

GR complex = test: modulation of [35S]TBPS binding in rat cerebral cortex P2 homogenate; design: species or system Sprague-Dawley rats; IMAX: unit not given here; settings: for IC50: concentration of compounds to inhibit 50% of control [35S]TBPS binding, 2 nM [35S]TBPS, 25°C, 90 minutes; for IMAX: maximum inhibition of [35S]TBPS binding, I* = Inactive
Method in brief: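 Rat (male Sprague-Dawley) cortical P2 homogenate, 0.5 mg protein, in 50 mM Na/K phosphate pH 7.4, 200 mM NaCl, incubated 90 min at 25° C with 2 nM [35S]TBPS plus GABA and (+)bicuculline, compounds added in DMSO. Filter-bound radioactivity counted; nonspecific binding defined with […].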

[2] = 50% hpbcd, 10 minutes prior to metrazol (85 mg/kg)

SMILES	% Protected [1, 2] [%]	% Control (mice; 50% hpbcd, 10 mg/kg) [%]	IC50 (GR complex; no unit printed) [nM]	IMAX (GR complex)	Geller/Seifter (% of control) (rats; sc, 50% hpbcd, 4 mg/kg)	further results
C[C@]12CC[C@](O)(C(F)(F)F)C[C@H]1CC[C@@H]1[C@@H]2CC[C@]2(C)[C@@H](C(=O)CO)CC[C@@H]12 [3α,21 Dihydroxy-3β-trifluoromethyl-5β-pregnan-20-one]	50	237	354	102	–	Geller/Seifter (% of control) (rats; sc, 50% hpbcd, 16 mg/kg): 982.4 % of control
CC(=O)OCC(=O)[C@H]1CC[C@H]2[C@@H]3CC[C@@H]4C[C@@](O)(C(F)(F)F)CC[C@]4(C)[C@H]3CC[C@]12C [3α,21-Dihydroxy-3β-trifluoromethyl-5β-pregnan-20-one, 21-acetate]	62.5	–	370	88	–	Geller/Seifter (% of control) (rats; sc, 50% hpbcd, 8 mg/kg): 882.8 % of control; % Control (mice; 50% hpbcd, 5 mg/kg): 143.3%
C[C@]12CC[C@](O)(C(F)(F)F)C[C@H]1CC[C@@H]1[C@@H]2CC[C@]2(C)[C@@H](C(=O)COC(=O)CCC(=O)[O-])CC[C@@H]12.[Na+] [3α,21-Dihydroxy-3β-trifluoromethyl-5β-pregnan-20-one, 21-hemisuccinate, sodium salt]	–	–	–	99	–	% Protected ([1]; water): 62.5%; Geller/Seifter (% of control) (rats; po, water, 8 mg/kg): 840.0 % of control; % Control (mice; water, 20 mg/kg): 172.8%; IC50 (GR complex; unit inferred, sodium salt): 712 nM
C#C[C@@]1(O)CC[C@@]2(C)[C@H](CC[C@@H]3[C@@H]2CC[C@]2(C)[C@@H](C(=O)COC(=O)CCC(=O)O)CC[C@@H]32)C1 [3α,21-dihydroxy-3β-ethynyl-5β-pregnan-20-one 21 hemisuccinat] [3α,21-dihydroxy-3β-ethynyl-5β-pregnan-20-one 21 hemisuccinate]	–	164.2	–	82	–	% Protected ([1]; water): 50%; Geller/Seifter (% of control) (rats; po, water, 16 mg/kg): 1350.0 % of control
C[C@]12CC[C@H]3[C@@H](CC[C@@H]4C[C@@](O)(C(F)(F)F)CC[C@@H]43)[C@@H]1CC[C@@H]2C(=O)COC(=O)CCC(=O)[O-].[Na+] [3α,21-dihydroxy-3β-trifluoromethyl-19-nor-5β-pregnan-20-one, 21-hemisuccinate, sodium salt]	–	–	530	101	–	% Protected ([1]; water): 50%; Geller/Seifter (% of control) (rats; po, water, 8 mg/kg): 2493.4 % of control; % Control (mice; water, 20 mg/kg): 161.1%
CC1([C@H]2CC[C@H]3[C@@H]4CC[C@H]5C[C@](C)(O)CC[C@]5(C)[C@H]4CC[C@]23C)NC(C(=O)O)CS1 (stereo partly drawn) [3α-Hydroxy-3β-methyl-5α-pregnane-20-spiro-2'-(1'3'-thiazolidine-4'-carboxylic acid)]	–	–	–	–	–	Geller/Seifter (% of control) (rats; sc, 50% hpbcd, 16 mg/kg): 900.0 % of control
CC=C1CCC2C3CCC4CC(O)(C(F)(F)F)CCC4C3CCC12C (stereo not drawn) [3α-Hydroxy-3β-trifluoromethyl-5β-19-norpregn-17(20)(Z)-ene]	25	–	–	–	–	Geller/Seifter (% of control) (rats; sc, 50% hpbcd, 16 mg/kg): 1130.3 % of control
CC(=O)[C@H]1CC[C@H]2[C@@H]3CC[C@@H]4C[C@@](O)(C(F)(F)F)CC[C@@H]4[C@H]3CC[C@]12C [3α-Hydroxy-3β-trifluoromethyl-5β-19-norpregnan-20-one]	100	173.8	76	100	1073.1 % of control	–
CC(=O)[C@H]1CC[C@H]2[C@@H]3CC[C@@H]4C[C@@](O)(C(F)(F)F)CC[C@]4(C)[C@H]3C=C[C@]12C [3α-Hydroxy-3β-trifluoromethyl-5β-pregn-11-en-20-one]	–	–	203	99	508.3 % of control	–
CC(=O)[C@H]1CC[C@H]2[C@@H]3CC[C@@H]4C[C@@](O)(C(F)(F)F)CC[C@]4(C)[C@H]3CC[C@]12C [3α-Hydroxy-3β-trifluoromethyl-5β-pregnan-20-one]	62.5	–	211	98	663.2 % of control	% Control (mice; 50% hpbcd, 20 mg/kg): 197.6%
C#C[C@@]1(O)CC[C@@]2(C)[C@@H](CC[C@@H]3[C@@H]2CC[C@]2(C)[C@@H](C(C)=O)CC[C@@H]32)C1 [3α-hydroxy-3β-ethynyl-5α-pregnan-20-one, 3β-Ethynyl-3α-hydroxy-5α-pregnan-20-one]	87.5	213	53	91	–	Geller/Seifter (% of control) (rats; sc, 50% hpbcd, 8 mg/kg): 830.2 % of control
CC(=O)[C@H]1CC[C@H]2[C@@H]3CC[C@H]4C[C@](C)(O)CC[C@]4(C)[C@H]3CC[C@]12C [3α-hydroxy-3β-methyl-5α-pregnan-20-one]	100	–	62	97	1384.6 % of control	% Control (mice; 50% hpbcd, 5 mg/kg): 165.6%
CC(=O)[C@H]1CC[C@H]2[C@@H]3CC[C@H]4C[C@@](O)(CF)CC[C@]4(C)[C@H]3CC[C@]12C [3β-Fluoromethyl-3α-hydroxy-5α-pregnan-20-one]	14.3	–	200	77	–	Geller/Seifter (% of control) (rats; sc, 50% hpbcd, 8 mg/kg): 1005 % of control; % Control (mice; 50% hpbcd, 20 mg/kg): 150.7%
